Where two headings read alike, the source gives them in different places.
Assays:
[1] = tested on: AKT, ERK, Stat5, PKA and PKC; experiment: Activation of AKT, ERK, Stat5, PKA and PKC in oncogene bearing cells, Western blot; assay type: cell-based, murine
Description: Cells were lysed in lysis buffer and centrifuged at 10,000 rpm for 5 min at 4° C. Supernatants were collected and protein concentration was determined using the BCA protein assay (Thermo Fisher Scientific, Rockford, Ill.). Equal amounts of protein extracts were mixed with gel loading buffer and separated on SDS-polyacrylamide gels. After electrophoresis, the proteins were transferred onto nitrocellulose membranes and nonspecific binding was blocked with 5% nonfat dry milk in Tris-buffered saline containing 0.1% Tween-20 (TBS-T). Membranes were then probed with various antibodies overnight at 4° C. on a rocker. After incubation, membranes were washed with TBS-T and incubated with appropriate horseradish peroxidase (HRP)-conjugated secondary antibodies for 1 hour at room temperature. Finally, the proteins on the membranes were detected using SuperSignal West Dura Luminol/Enhancer solution (Thermo Fisher Scientific, Rockford, Ill.) and exposing the membranes to X-ray film.

[2] = tested on: 32D cells bearing BCR-ABLT315I; experiment: Proliferation, 32D cells expressing imatinib-resistant BCR-ABLT315I mutant; assay type: cell-based, murine
32D cells bearing KIT = experiment: F-actin content, 32D cells bearing KIT with IL-3; assay type: cell-based, murine; details: in the presence of IL-3
Description: After treatment, cells were fixed with 4% paraformaldehyde in PBS for 15 min and washed with PBS. After fixing, cells were quenched with 0.1 M glycine in PBS for 15 min and washed with PBS. Then, cells were permeabilized with 0.2% Triton X-100 (w/v) in PBS for 10 min and washed with PBS followed by blocking non-specific binding sites with 5% rat serum containing 0.2% BSA in PBS. Cells were stained with FITC-conjugated phalloidin for 30 min, washed with 0.2% BSA in PBS, and analyzed by flow cytometry.

[3] = tested on: primary HSC/Ps bearing FLT3N51; experiment: Proliferation, primary HSC/Ps transduced with FLT3N51; assay type: cell-based, C57BL/6 mice
Description: Retroviral supernatants for transduction of 32D and primary HSC/Ps were generated using the Phoenix ecotropic packaging cell line transfected with retroviral vector plasmids using a calcium phosphate transfection kit (Invitrogen, Carlsbad, Calif.). Supernatants were collected 48 hours after transfection and filtered through […] membranes. 32D cells were infected with 2 mL high-titer virus supernatant in the presence of polybrene (8 μg/mL) and IL-3 (10 ng/mL). Low density mononuclear cells (LDMNCs) were suspended in IMDM containing 20% FBS and 1% penicillin/streptomycin, and pre-stimulated in non-tissue culture plates supplemented with SCF (100 ng/mL), FL T3L (50 ng/mL), IL-6 (4 ng/mL), and Tpo (100 ng/mL) for 48 hours prior to retroviral infection on fibronectin fragments. After infection, 32D and primary HSC/Ps bearing the vector, WT or oncogenic receptors were sorted to homogeneity based on EGFP expression and used to perform all experiments.
To validate whether the suppression in growth of oncogene bearing cells by ROCK inhibitors observed in 32D cells also occurs in primary hematopoietic stem and progenitor cells (HSC/Ps), primary HSC/Ps from C57BL/6 mice were transduced with FLT3 or FLT3N51 and analyzed for proliferation in the presence or absence of ROCK inhibitors.

[4] = tested on: mice transplanted with 32D cells bearing FLT3N51; experiment: MPD and survival of mice transplanted with 32D cells bearing FLT3N51; assay type: in vivo, C3H/HeJ mice; details: treated for 21 days starting two weeks after transplantation, vs PBS
Description: To further determine the efficacy of ROCK inhibitors in treating MPD due to activating mutations in receptor tyrosine kinases, similar pharmacological studies were performed using a different oncogene and a distinct ROCK inhibitor. 32D cells bearing FLT3N51 were transplanted into syngenic C3H/HeJ mice through tail vein. After two weeks of transplantation, mice were treated with PBS (vehicle), H-1152, or fasudil for 21 days and monitored for MPD and survival. […] After 5 weeks of prolonged survival compared to PBS treated mice, H-1152 or fasudil treated mice were sacrificed and further analysis were performed.

[5] = tested on: cells bearing CHRD814V or CHRD814V-Y719; experiment: Constitutive growth of cells bearing CHRD814V or CHRD814V-Y719; assay type: cell-based
Text: (§1) Utilizing Chimeric KIT receptors (CHR) as template, we generated the mutant CHRD814V and CHRD814V with none (CHRD814V-F7) or single intracellular tyrosine add-back mutant at 719 (CHRD814V-Y719) using the Quick change Site-Directed Mutagenesis kit (Stratagene, La Jolla, Calif.) and the following primer pair (SEQ ID NO: 2: forward: 5′-[…]-3; SEQ ID NO: 3: reverse: 5′-[…]-3′). All of these mutated CHRD814V receptors were verified by direct sequencing.
(§2) CHRD814V-Y719 is similar to CHRD814V-F7 except that tyrosine residue 719 (the binding site for p85α) is preserved.

[6] = tested on: KIT or MIEG3 bearing 32D cells; experiment: Cell death (annexin V and 7-AAD), KIT or MIEG3 bearing 32D cells; assay type: cell-based, murine
Description: 2×10^5 cells were plated in 24 well plates in the presence and absence of IL-3 and indicated concentrations of different ROCK inhibitors. Forty eight hours after treatment, cells were washed with PBS and the percentage of cell death was determined by annexin V and 7-AAO staining. Cells were re-suspended in 1× annexin V binding buffer and incubated for 30 min at 4° C. Cells were incubated with 5 μL each of annexin V and 7-AAO for 20 min at room temperature in the dark. After incubation, percentage of apoptotic cells (annexin V and 7-AAO positive) was determined using flow cytometry.
In this Example, the survival of oncogene bearing cells in the presence or absence of ROCK inhibitors was evaluated to determine how ROCK inhibitors might inhibit the growth of oncogene bearing cells.

[7] = tested on: 32D cells bearing MIEG3 or KIT, BaF3 cells bearing FLT3; experiment: Proliferation (thymidine incorporation), cells bearing MIEG3, KIT or FLT3 with IL-3; assay type: cell-based, murine; details: cells bearing MIEG3, KIT or FLT3, in the presence of IL-3
Description: (§3) The murine IL-3 dependent and G418 resistant pro-B cell line BaF3 bearing FLT3 and FLT3N51 were cultured in medium containing IMDM supplemented with 10% FBS, G418 (2 mg/mL), and murine IL-3 (5 ng/mL). The Human mast cell leukemia line, bearing the KITV560G as well as KITD816V mutations, HMC1.2 and acute myeloid leukemia (AML) cell line, bearing the FLT3-ITD mutation, MV4-11 were obtained from the American Type Culture Collection (Manassas, Va.) and cultured in medium containing IMDM supplemented with 15% FBS and 1.2 mM monothioglycerol.
IL-3 enhances the growth of these cells.

[8] = tested on: cells derived from AML and mastocytosis patients; experiment: Growth (thymidine incorporation) of cells derived from AML and mastocytosis patients; assay type: cell-based, human
Text: (§4) Blast cells from the bone marrow of patients with AML were obtained at the time of diagnostic testing. Approval was obtained from the institutional review boards of Indiana University School of Medicine. The buoyant fraction was isolated over Ficoll-Hypaque, and then washed with phosphate-buffered saline (PBS) before processing.
(§5) Specifically, the growth of HMC1.2 cells bearing the activating KIT mutation (KITV560G and KITD816V) and MV4-11 cells bearing the activating FLT3 mutation (FLT3-ITD) treated with H-1152 was determined.

[9] = Description: After 48 hours of transplantation, mice were treated with vehicle (PBS) or H-1152 (66 mg/kg body weight) by oral gavage at 12 hours interval for 14 days. In the second study, mice were treated with vehicle, H-1152 (50 mg/kg body weight, oral gavage) or fasudil (25 mg/kg body weight, intraperitoneal) at 24 hour intervals for 21 days. […] After 10 days of transplantation, mice were treated with vehicle, H-1152 (50 mg/kg body weight, oral gavage) or fasudil (25 mg/kg body weight, intraperitoneal) at 24 hour intervals for 21 days. In all studies, mice were closely monitored for MPD and harvested at moribund. Bone marrow, spleen, liver and lungs were fixed in 10% buffered formalin and sections were stained with hematoxylin and eosin for histopathologic analysis.
[10] = tested on: cells bearing CHRD814V-F7; experiment: Growth of cells bearing CHRD814V-F7 in the presence of IL-3; assay type: cell-based; details: cells bearing CHRD814V-F7, in the presence of IL-3, data not shown
Text: as §1, §2

[11] = tested on: HMC1.2 cells (KITV560G and KITD816V); experiment: Growth of HMC1.2 cells; assay type: cell-based, Human
Description: as §3, §5

ROCK = ROCK activity (pMYPT1) in cells derived from AML and mastocytosis patients; assay type: cell-based, human
Text: as §4, §5

MV4-11 cells (FLT3-ITD) = experiment: Growth of MV4-11 cells; assay type: cell-based, Human
Description: as §3, §5

[12] = human trials for cardiovascular indications; cited from earlier work

| Structure (SMILES) | activation of AKT, ERK, Stat5, and PKC ([1]; Example 1) | activation of ERK, AKT, Stat5, PKA and PKC ([1]; Example 8) | growth of cells bearing BCR-ABLT315I [2] | F-actin content (32D cells bearing KIT) | proliferation (thymidine incorporation) [3] | spleen and liver weights [4] | survival [4] | constitutive growth (thymidine incorporation) [5] | cell death [6] | proliferation (thymidine incorporation) [7] | growth (thymidine incorporation) [8] | signs of toxicity ([9]; treated mice) | growth [10] | growth of HMC1.2 cells [11] | ROCK activity (ROCK) | growth of MV4-11 cells (MV4-11 cells (FLT3-ITD)) | signs of toxicity ([9]; mouse, in vivo) | toxicity upon ROCK inhibition in vivo [12] |
| --- | --- | --- | --- | --- | --- | --- | --- | --- | --- | --- | --- | --- | --- | --- | --- | --- | --- | --- |
| Cc1cncc2cccc(S(=O)(=O)N3CCCNC[C@@H]3C)c12 [H-1152] | no effect | relatively unperturbed | dose dependent suppression in growth | no effect on F-actin content | significant reduction in proliferation | significantly reduced spleen and liver weights | significantly prolonged the survival | dose dependent inhibition in constitutive growth | 5-10% | minimal suppression in proliferation | repression in ROCK activity and growth | no signs of toxicity | only a moderate suppression in growth | dose dependent reduction in growth | repression in ROCK activity | dose dependent reduction in growth | – | – |
| C[C@@H](N)[C@H]1CC[C@H](C(=O)Nc2ccncc2)CC1 [Y27632] | – | – | – | – | significant reduction in the growth | – | – | – | – | – | – | – | – | – | – | – | – | – |
| O=S(=O)(c1cccc2cnccc12)N1CCCNCC1 [fasudil] | – | – | – | – | significant reduction in the growth | significantly reduced spleen and liver weights | – | – | – | – | – | – | – | – | – | – | no signs of toxicity | lack of toxicity |
